From patent publication US20260258004A1, “CRYSTALLINE FORMS OF (6S)-5-[4'-FLUORO-2-(TRIFLUOROMETHYL)BIPHENYL-4-YL]-6-METHYL-3,6- DIHYDRO-2H-l,3,4-OXADIAZIN-2-ONE” (Bayer Aktiengesellschaft, priority 2022, published 2026)
Blank lines part the entries; values can stand above or below the molecule they belong to.

How the values were obtained:
Type in all cases: physicochemical
[1] = Particle size analysis of micronized product, laser diffraction (Sympatec HELOS/RODOS, dry dispersion); conditions: micronized twice, air jet mill; dry dispersion at 4 bar
From the text: The instrumental set-up for particle size analysis: • Laser diffraction pattern analyzer (Sympatec HELOS, H1970 & RODOS, R3:0.5/0.9 . . . 175 μm), 100 mm focal length, • Dry dispersion (RODOS) at 4 bar, • Mathematical model (LD 5.9.0.0)-Sympatec Code, basis Fraunhofer Diffraction

[2] = Determination of bulk density during shear tests; conditions: during shear test, normal stress 1.5 kPa
Method: Because of the normal stress of 1.5 kPa applied on the top of the lid during the shear test the lid lowers into the shear cell and compresses the powder.
During the shear tests this lowering of the lid is measured and recorded. Since the volume of the bottom ring is known and weight of the sample measured before the beginning of the shear test the bulk density of the sample during the shear test is calculated
[formula] • with: • ρb,shear: Bulk density under shear • mges: total mass of shear cell including powder sample (w/o lid) • mcell: net mass of shear cell (w/o powder sample, w/o lid) • hc: height of the bottom ring • hl: lowering of lid • Acell: bottom area of shear cell
The calculation of the bulk density is done automatically with the evaluation software provided together with the shear tester.

[3] = Particle size distribution by laser diffraction (Malvern Panalytical Mastersizer 3000, Fraunhofer)
Method: The particle size distribution was measured by laser diffraction using the Malvern Panalytical Mastersizer 3000.
The samples are again taken from example 1.6 (probe 1) and example 1.5 (probe 2), the same as used in example 4.
The sample to be analyzed is dispersed in 1 drop of Tween 80 the sample is processed according to ISO13320.
Laser diffraction is an often-used method for determination the particle size of dispersed solid materials. A widened laser beam illuminates a cuvette which contains part of the particles. By diffraction on the particles a characteristic pattern can be mapped on the detector. The resulting diffraction image is the additive overlaying of diffraction images of all particles.
Besides the mentioned detector two additional detectors are mounted in order to detect diffraction light in forward direction (FA1,9), in wide angle (LA1,2) and in back direction (BS1,2). The turbidity of the sample is measured by an extinction sensor. This is necessary to ensure a low particle concentration which is necessary to avoid wrong results by multiple diffraction of light at several particles.
The cuvette used was a wet unit where the suspension is pumped in a closed circuit with a dispersing unit that ensures a separation of single particles by shear forces.
The measurement range of the Malvern 3000 covers a particle size from 1 mm (2 mm) down to 20 nm
The calculation of the particle size distribution from the diffraction patterns was done on basis of theory of Fraunhofer.
This assumption is valid for particle sizes of 10 to 50 μm and above. For smaller particles the light scattering of the particle itself due to optical transparency must be considered which is done in the Mie-theory (not used for our probes). Precondition of the application of the Mie-theory is the knowledge of the refractive and absorption index of the dispersed solids.
Q3 is the cumulative volume distribution, e.g. D50=Q(50%) indicates 50% of the volume part of the sample is smaller than particle size of 50 μm.
The particle size is expressed as an equivalent diameter used in the method recommended by the Malvern Analysis Program and as described in ISO13320.

[4] = Hygroscopicity classification applying the Pharmacopeia rules
From the text: The shear cell was fully filled with a sample of powder of the compound of formula (I) thereby preventing condensing the powder. Both samples, sample 1 and sample 2, were classified as non-hydroscopic applying the Pharmacopeia rules.

[5] = without ultrasound (US), listed as Probe 1

Particle Size distribution X10 [1]: 1.2 μm | Particle Size distribution X50 [1]: 4 μm | Particle Size distribution X90 [1]: 10 μm
Structure (SMILES): C[C@@H]1OC(=O)NN=C1c1ccc(-c2ccc(F)cc2)c(C(F)(F)F)c1 [micronized product, (6S)-5-[4′-fluoro-2-(trifluoromethyl)[biphenyl]-4-yl]-6-methyl-3,6-dihydro-2H-1,3,4-oxadiazin-2-one]

bulk density [2]: 270 kg/m^3 | difference between Q3[50] of untreated sample and sample treated 300 s with ultrasound [3]: large | D(10) ([3]; 300 s US, listed as Probe 1): 4.02 μm | D(50) ([3]; 300 s US, listed as Probe 1): 44 μm | D(90) ([3]; 300 s US, listed as Probe 1): 128 μm | amount of fines ([3]; after US treatment of 300 s, compared to polymorph C): significantly larger | Cumulative volume distribution Q ([3]; particle size D 0.01 μm, 300 s US): 0% | Cumulative volume distribution Q ([3]; particle size D 0.01 μm, without US): 0% | Cumulative volume distribution Q ([3]; particle size D 0.0114 μm, 300 s US): 0% | Cumulative volume distribution Q ([3]; particle size D 0.0114 μm, without US): 0% | Cumulative volume distribution Q ([3]; particle size D 0.0129 μm, 300 s US): 0% | Cumulative volume distribution Q ([3]; particle size D 0.0129 μm, without US): 0% | Cumulative volume distribution Q ([3]; particle size D 0.0147 μm, 300 s US): 0% | Cumulative volume distribution Q ([3]; particle size D 0.0147 μm, without US): 0% | Cumulative volume distribution Q ([3]; particle size D 0.0167 μm, 300 s US): 0% | Cumulative volume distribution Q ([3]; particle size D 0.0167 μm, without US): 0% | Cumulative volume distribution Q ([3]; particle size D 0.0189 μm, 300 s US): 0% | Cumulative volume distribution Q ([3]; particle size D 0.0189 μm, without US): 0% | Cumulative volume distribution Q ([3]; particle size D 0.0215 μm, 300 s US): 0% | Cumulative volume distribution Q ([3]; particle size D 0.0215 μm, without US): 0% | Cumulative volume distribution Q ([3]; particle size D 0.0244 μm, 300 s US): 0% | Cumulative volume distribution Q ([3]; particle size D 0.0244 μm, without US): 0% | Cumulative volume distribution Q ([3]; particle size D 0.0278 μm, 300 s US): 0% | Cumulative volume distribution Q ([3]; particle size D 0.0278 μm, without US): 0% | Cumulative volume distribution Q ([3]; particle size D 0.0315 μm, 300 s US): 0% | Cumulative volume distribution Q ([3]; particle size D 0.0315 μm, without US): 0% | Cumulative volume distribution Q ([3]; particle size D 0.0358 μm, 300 s US): 0% | Cumulative volume distribution Q ([3]; particle size D 0.0358 μm, without US): 0% | Cumulative volume distribution Q ([3]; particle size D 0.0407 μm, 300 s US): 0% | Cumulative volume distribution Q ([3]; particle size D 0.0407 μm, without US): 0% | Cumulative volume distribution Q ([3]; particle size D 756 μm, 300 s US): 100% | Cumulative volume distribution Q ([3]; particle size D 756 μm, without US, listed as Probe 1): 92.34% | Cumulative volume distribution Q ([3]; particle size D 859 μm, 300 s US): 100% | Cumulative volume distribution Q ([3]; particle size D 859 μm, without US, listed as Probe 1): 96.59% | Cumulative volume distribution Q ([3]; particle size D 976 μm, 300 s US): 100% | Cumulative volume distribution Q ([3]; particle size D 976 μm, without US, listed as Probe 1): 99.14% | Cumulative volume distribution Q ([3]; particle size D 1110 μm, 300 s US): 100% | Cumulative volume distribution Q ([3]; particle size D 1110 μm, without US): 100% | Cumulative volume distribution Q ([3]; particle size D 1260 μm, 300 s US): 100% | Cumulative volume distribution Q ([3]; particle size D 1260 μm, without US): 100% | Cumulative volume distribution Q ([3]; particle size D 1430 μm, 300 s US): 100% | Cumulative volume distribution Q ([3]; particle size D 1430 μm, without US): 100% | Cumulative volume distribution Q ([3]; particle size D 1630 μm, 300 s US): 100% | Cumulative volume distribution Q ([3]; particle size D 1630 μm, without US): 100% | Cumulative volume distribution Q ([3]; particle size D 1850 μm, 300 s US): 100% | Cumulative volume distribution Q ([3]; particle size D 1850 μm, without US): 100% | Cumulative volume distribution Q ([3]; particle size D 2100 μm, 300 s US): 100% | Cumulative volume distribution Q ([3]; particle size D 2100 μm, without US): 100% | Cumulative volume distribution Q ([3]; particle size D 2390 μm, 300 s US): 100% | Cumulative volume distribution Q ([3]; particle size D 2390 μm, without US): 100% | Cumulative volume distribution Q ([3]; particle size D 2710 μm, 300 s US): 100% | Cumulative volume distribution Q ([3]; particle size D 2710 μm, without US): 100% | Cumulative volume distribution Q ([3]; particle size D 3080 μm, 300 s US): 100% | Cumulative volume distribution Q ([3]; particle size D 3080 μm, without US): 100% | Cumulative volume distribution Q ([3]; particle size D 3500 μm, 300 s US): 100% | Cumulative volume distribution Q ([3]; particle size D 3500 μm, without US): 100% | D(10) [3, 5]: 165 μm | D(50) [3, 5]: 404 μm | D(90) [3, 5]: 720 μm | hygroscopicity classification [4]: non-hydroscopic
Structure (SMILES): C[C@@H]1OC(=O)NN=C1c1ccc(-c2ccc(F)cc2)c(C(F)(F)F)c1 [polymorph A, (6S)-5-[4′-Fluoro-2-(trifluoromethyl)biphenyl-4-yl]-6-methyl-3,6-dihydro-2H-1,3,4-oxadiazin-2-one]
particle size distribution compared to polymorph C ([3]; after ultrasound treatment): significantly smaller particle size and broader distribution | particle size distribution compared to polymorph C ([3]; without ultrasound treatment): significantly broader particle size distribution and larger particles
